Results taken from patent US20230119479A1, “A HISTONE DEACETYLASE INHIBITOR HAVING A NITROGEN-CONTAINING AROMATIC HETEROCYCLYL GROUP” (SHIONOGI & CO., LTD., priority 2019, published 2023).

What follows are molecules tested against T1, HDAC2 Human recombinant C-terminal FLAG-tag (Homo sapiens, UniProt Q92769) (assay: Measurement of HDAC2 enzyme inhibitory activity (HTRF)). Details: recombinant HDAC2, H3K9ac peptide, 3 hours room temperature; read-out: HDAC2 IC50.
T1 construct: FLAG (C); purchased BPS Bioscience 50052
T1 sequence (Q92769 whole entry): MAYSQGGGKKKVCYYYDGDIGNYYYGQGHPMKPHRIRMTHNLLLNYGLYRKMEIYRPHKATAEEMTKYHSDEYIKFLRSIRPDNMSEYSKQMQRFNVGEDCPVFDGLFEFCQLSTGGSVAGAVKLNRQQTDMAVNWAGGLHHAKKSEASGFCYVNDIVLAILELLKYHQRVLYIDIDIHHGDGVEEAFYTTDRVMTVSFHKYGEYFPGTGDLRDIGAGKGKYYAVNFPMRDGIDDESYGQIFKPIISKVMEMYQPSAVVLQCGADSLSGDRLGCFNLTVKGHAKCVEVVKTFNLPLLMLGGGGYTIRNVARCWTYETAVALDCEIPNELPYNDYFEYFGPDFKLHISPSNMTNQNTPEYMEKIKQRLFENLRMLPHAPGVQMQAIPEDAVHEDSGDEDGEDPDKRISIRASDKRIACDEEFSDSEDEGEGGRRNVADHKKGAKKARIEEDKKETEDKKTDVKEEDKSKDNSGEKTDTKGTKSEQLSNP
Format: biochemical
Experimental: Test Example 1: Measurement of HDAC2 Enzyme Inhibitory Activity
The HDAC2 enzyme inhibitory activity was measured by the method described in the following test example.
To each well of a 384-well plate (Corning, 4514), DMSO solution of the test compound was dispensed at 50 nL/well from a final concentration of 99 μM to 8 points (n=2) in the 3-fold dilution series using Echo555 (Beckman Coulter). 2.5 μl of 0.005 mg/mL recombinant enzyme HDAC2 (HDAC2 Human recombinant C-terminal FLAG-tag, BPS Bioscience, 50052) was added to each well, 2.5 μl of 0.6 μM H3K9ac peptide (Lys(Ac)9-Histone H3 (1-21)-GGK(Biotin), AnaSpec, 64361) was added, mixed, and reacted in a wet box at room temperature for 3 hours. 50 mM Tris HCL pH8.0, 137 mM sodium chloride, 2.7 mM potassium chloride, 1 mM magnesium chloride, 0.01% Tween20, and 0.1% BSA which were diluted with ultrapure water were used as a reaction buffer at this time. After the reaction, 5 μL of 10 μM SAHA (suberoylanilide hydroxamic acid) as a reaction terminator and the 5 μL of a mixture of 2.5 ng of H3K9me0 antibody (ActiveMotif, 61399) labeled in-house with europium cryptate (Cisbio, 65EUSABA) and 125 nM streptavidin-XL665 (Cisbio, 610SAXLA) as an HTRF (time-resolved fluorescence) reagent were added to each well, mixed, and allowed to stand in a wet box at room temperature for reaction. A detection buffer used at this time was 50 mM Tris HCL pH 8.0, 0.8 M potassium fluoride, and 0.1% BSA which were diluted with ultrapure water. After reacting for 2 hours or more, HTRF was measured using a multi-plate reader such as SpectraMax Paradigm (MOLECULAR DEVICE) or RUBYstar (BMG LABTECH). Ratio (665 nm/615-620 nm×10000) was calculated from the fluorescence values of two wavelengths, 615-620 nm and 665 nm, which were excited at 320-340 nm, and the energy transition was obtained.

Row | SMILES | IC50 [nM]
1 | Cn1cc(-c2ccc(N)c(NC(=O)c3cnc(C(C)(C)C)cn3)c2)cn1 [Compound I-204] | 340
2 | CN(C)c1cnc(C(=O)Nc2cc(-c3cncs3)ccc2N)cn1 [Compound I-205] | 60
3 | Nc1ccc(-n2cccc2)nc1NC(=O)c1ccc(N2CCOCC2)cn1 [Compound I-206] | 500
4 | COCc1ccc(C(=O)Nc2cc(-c3cnn(C)c3)ccc2N)nc1 [Compound I-207] | 250
5 | COCc1ccc(C(=O)Nc2cc(-c3ccc(F)nc3)ccc2N)nc1 [Compound I-208] | 150
6 | Cc1cnc(C(=O)Nc2cc(-c3ccc(F)nc3)ccc2N)c(F)c1 [Compound I-209] | 150
7 | Cc1ccc(C(=O)Nc2cc(-c3ccc(F)nc3)ccc2N)nc1F [Compound I-210] | 190
8 | CN(C)c1cnc(C(=O)Nc2nc(-n3cccc3)ccc2N)cn1 [Compound I-212] | 830
9 | CN(C)c1cnc(C(=O)Nc2nc(-c3ccccc3)ccc2N)cn1 [Compound I-213] | 310
10 | Cn1cc(-c2ccc(N)c(NC(=O)c3ccc4c(n3)OCO4)c2)cn1 [Compound I-216] | 100
11 | Nc1ccc(-c2ccccc2)nc1NC(=O)c1ccc2c(n1)OCO2 [Compound I-217] | 340
12 | COCc1cnc(C(=O)Nc2cc(-c3ccc(F)nc3)ccc2N)cn1 [Compound I-218] | 150
13 | COCc1cnc(C(=O)Nc2cc(-c3cnn(C)c3)ccc2N)cn1 [Compound I-219] | 310
14 | CCN(C)c1cnc(C(=O)Nc2cc(-c3ccc(F)nc3)ccc2N)cn1 [Compound I-220] | 50
15 | Nc1ccc(-c2ccc(F)nc2)cc1NC(=O)c1cnc(N2CCC2)cn1 [Compound I-221] | 50
16 | Nc1ccc(-c2ccc(F)nc2)cc1NC(=O)c1cnc(N2CC(CO)(CCl)C2)cn1 [Compound I-222] | 80
17 | Nc1ccc(-c2ccc(F)nc2)cc1NC(=O)c1cnc(N2CC3(CCC3)C2)cn1 [Compound I-223] | 90
18 | Nc1ccc(-c2ccc(F)nc2)cc1NC(=O)c1cnc(N2CC(Cl)(CCO)C2)cn1 [Compound I-224] | 100
19 | Nc1ccc(-c2ccc(F)nc2)cc1NC(=O)c1cnc(N2CCC2(CO)CCl)cn1 (centres unmarked) [Compound I-225] | 90
20 | CN(C)c1ccc(C(=O)Nc2nc(-n3cccc3)ccc2N)nc1 [Compound I-226] | 450
21 | CN(C)c1cnc(C(=O)Nc2nc(-c3cnn(C)c3)ccc2N)cn1 [Compound I-228] | 630
22 | COCCOc1cnc(C(=O)Nc2cc(-c3ccc(F)nc3)ccc2N)cn1 [Compound I-229] | 130
23 | COCCOc1cnc(C(=O)Nc2cc(-c3cnn(C)c3)ccc2N)cn1 [Compound I-230] | 250
24 | COCCOc1cnc(C(=O)Nc2nc(-c3ccccc3)ccc2N)cn1 [Compound I-231] | 850
25 | COCCOc1cnc(C(=O)Nc2nc(-n3cccc3)ccc2N)cn1 [Compound I-232] | 320

Row | SMILES | IC50 [nM]
26 | Nc1ccc(-c2ccccc2)nc1NC(=O)c1ccc2c(n1)OCC(=O)N2 [Compound I-233] | 280
27 | Nc1ccc(-n2cccc2)nc1NC(=O)c1ccc2c(n1)OCC(=O)N2 [Compound I-234] | 240
28 | Nc1ccc(-c2ccc(F)nc2)cc1NC(=O)c1cnc(N2CC3(CCO3)C2)cn1 [Compound I-235] | 60
29 | Nc1ccc(-c2ccc(F)nc2)cc1NC(=O)c1cnc(N2CCC23COC3)cn1 [Compound I-236] | 70
30 | CCN(C)c1cnc(C(=O)Nc2cc(-c3cnn(C)c3)ccc2N)cn1 [Compound I-237] | 160
31 | Cn1cc(-c2ccc(N)c(NC(=O)c3cnc(N4CCC4)cn3)c2)cn1 [Compound I-238] | 150
32 | Nc1ccc(-c2ccc(F)nc2)cc1NC(=O)c1cnc(Cl)cn1 [Compound I-239] | 230
33 | Nc1ccc(-c2ccc(F)nc2)cc1NC(=O)c1cnc(N2CCCC2)cn1 [Compound I-240] | 80
34 | Cn1cc(-c2ccc(N)c(NC(=O)c3cnc(N4CCCC4)cn3)c2)cn1 [Compound I-241] | 140
35 | CC(C)Nc1cnc(C(=O)Nc2cc(-c3ccc(F)nc3)ccc2N)cn1 [Compound I-242] | 40
36 | Nc1ccc(-c2ccc(F)nc2)cc1NC(=O)c1ccc(C2CCC2)cn1 [Compound I-243] | 260
37 | CC(=O)N(C)c1cnc(C(=O)Nc2cc(-c3cnn(C)c3)ccc2N)cn1 [Compound I-244] | 470
38 | Nc1ccc(-c2ccc(F)nc2)cc1NC(=O)c1cnc(N2CC3(COC3)C2)cn1 [Compound I-245] | 70
39 | Nc1ccc(-c2ccc(F)nc2)cc1NC(=O)c1ccc(C2COC2)cn1 [Compound I-246] | 110
40 | CN(C)c1cnc(C(=O)Nc2nc(-c3ccc(F)nc3)ccc2N)cn1 [Compound I-247] | 380
41 | CC(=O)N(C)c1cnc(C(=O)Nc2cc(-c3ccc(F)nc3)ccc2N)cn1 [Compound I-248] | 220
42 | CCc1cnc(C(=O)Nc2cc(-c3ccc(F)nc3)ccc2N)cn1 [Compound I-249] | 70
43 | CC(C)c1cnc(C(=O)Nc2cc(-c3ccc(F)nc3)ccc2N)cn1 [Compound I-251] | 110
44 | CC(C)c1cnc(C(=O)Nc2cc(-c3cnn(C)c3)ccc2N)cn1 [Compound I-252] | 170
45 | COc1ccc(C(=O)Nc2cc(-c3ccc(F)nc3)ccc2N)nn1 [Compound I-253] | 150
46 | Cn1cc(-c2ccc(N)c(NC(=O)c3cc4c(cn3)OCCC4)c2)cn1 [Compound I-255] | 410
47 | Cc1ccc(C(=O)Nc2cc(-c3ccc(F)nc3)ccc2N)nn1 [Compound I-256] | 260
48 | Cc1ccc(C(=O)Nc2cc(-c3cnn(C)c3)ccc2N)nn1 [Compound I-257] | 570
49 | COc1cnc(C(=O)Nc2cc(-c3cnn(C)c3)ccc2N)nc1 [Compound I-258] | 870
50 | COc1cnc(C(=O)Nc2cc(-c3ccc(F)nc3)ccc2N)nc1 [Compound I-259] | 340

Row | SMILES | IC50 [nM]
51 | CCc1cnc(C(=O)Nc2nc(-c3ccccc3)ccc2N)cn1 [Compound I-260] | 470
52 | CCc1cnc(C(=O)Nc2nc(-n3cccc3)ccc2N)cn1 [Compound I-261] | 260
53 | Nc1ccc(-c2ccc(F)nc2)cc1NC(=O)c1ccc(N2CCOCC2)nn1 [Compound I-262] | 100
54 | CN(C)c1ccc(C(=O)Nc2cc(-c3ccc(F)nc3)ccc2N)nn1 [Compound I-263] | 120
55 | Nc1ccc(-c2ccc(F)nc2)cc1NC(=O)c1ccc(Cl)nn1 [Compound I-264] | 270
56 | CC(=O)Nc1ccc(C(=O)Nc2cc(-c3cnn(C)c3)ccc2N)nc1 [Compound I-265] | 90
57 | Nc1ccc(-c2ccc(F)nc2)cc1NC(=O)c1ccc(N2CCC2)nn1 [Compound I-266] | 140
58 | Nc1ccc(-n2ccc(F)c2)cc1NC(=O)c1cnc(N2CCOCC2)cn1 [Compound I-267] | 100
59 | CCOc1ccc(C(=O)Nc2cc(-c3ccc(F)nc3)ccc2N)nn1 [Compound I-268] | 130
60 | CCOc1ccc(C(=O)Nc2cc(-c3cnn(C)c3)ccc2N)nn1 [Compound I-269] | 180
61 | Cn1cc(-c2ccc(N)c(NC(=O)c3ccc(Cl)nn3)c2)cn1 [Compound I-270] | 970
62 | Nc1ccc(-c2ccc(F)nc2)cc1NC(=O)c1ccc(N2CCCC2)nn1 [Compound I-271] | 90
63 | Cn1cc(-c2ccc(N)c(NC(=O)c3ccc(N4CCCC4)nn3)c2)cn1 [Compound I-272] | 230
64 | CC(C)Nc1ccc(C(=O)Nc2cc(-c3ccc(F)nc3)ccc2N)nn1 [Compound I-273] | 230
65 | CN(C)c1ccc(C(=O)Nc2cc(-c3cnn(C)c3)ccc2N)nn1 [Compound I-274] | 240
66 | Cn1cc(-c2ccc(N)c(NC(=O)c3ccc(N4CCOCC4)nn3)c2)cn1 [Compound I-275] | 260
67 | CN(Cc1ccccn1)c1cnc(C(=O)Nc2cc(-c3ccc(F)nc3)ccc2N)cn1 [Compound I-276] | 40
68 | Nc1ccc(-c2ccc(F)nc2)cc1NC(=O)c1cnc(NCc2ccccn2)cn1 [Compound I-277] | 40
69 | Nc1ccc(-c2ccc(F)nc2)cc1NC(=O)c1cnc(N2CCCOCC2)cn1 [Compound I-278] | 50
70 | Nc1ccc(-c2ccc(F)nc2)cc1NC(=O)c1cnc(N2Cc3cccnc3C2)cn1 [Compound I-279] | 50
71 | CC(=O)Nc1ccc(C(=O)Nc2nc(-c3ccccc3)ccc2N)nc1 [Compound I-281] | 230
72 | Nc1ccc(-c2ccc(F)nc2)cc1NC(=O)c1cnc(N2CC(O)C2)cn1 [Compound I-282] | 50
73 | COC1CN(c2cnc(C(=O)Nc3cc(-c4ccc(F)nc4)ccc3N)cn2)C1 [Compound I-283] | 50
74 | CC(C)(O)C1CN(c2cnc(C(=O)Nc3cc(-c4ccc(F)nc4)ccc3N)cn2)C1 [Compound I-284] | 80
